Measured values as given in US5707615A, “Method of treating HIV infections with anti-viral formulations” (Merrell Pharmaceuticals Inc., priority 1997, dated 1998).
Where “and” joins values, the source holds several entries; their conditions need not be identical. Equal values may be shown once.

Tests used:
HIV = details: cited from earlier work
influenza = details: cited from earlier work
HIV-I (GB8) [1] = assay: Effect of treating HIV-I (GB8)-infected cells (JM) 24 hours post-infection (Example V, Table VI); type: cell-based; details: for P24 % CONTROL: 8640 min
HIV-I (RF) = assay: Effect of treating HIV-I (RF)-infected cells (C8166) 24 hours post-infection (Example V, Table VII); details: for P24 % CONTROL: 8640 min
Procedure: Cells were infected with strain RF or GB8 for 24 hours at 37° C. at a multiplicity of infection of 0.001. Cells were washed three times to remove residual virus and then replated into fresh growth medium. Cells were then treated for 24 and 48 hours post-infection (p.i.) with the indicated concentrations of test compounds. Syncytia and P24 antigen levels were determined on the indicated days p.i. by methods described before.

GB8 virus in JM cells = assay: Virus infection of JM cells with GB8 in the presence of test compounds: syncytia and P24 (Example II); details: Table II; for SYNCYTIA % / P24 %: % of control; for SYNCYTIA %: 2880 min; for P24 %: 5760 min
Procedure: Virus infection of JM cells was carried out in the presence of different concentrations of test compounds. JM cells (1×10^5) and 50-100 syncytial forming units of virus (GB8) were added to duplicate wells of a tissue culture plate containing 1 mL volumes of growth medium with or without drug. The plate was incubated for 2 days at 37° C. and then scored for the presence of syncytia. At the same time the cells were washed and the growth medium replaced. After a further two days incubation, the cell free supernatant fluids were harvested and assayed for levels of P24 viral core antigen using the Coulter™ HIV Antigen assay.

HIV strain RF = assay: Ability to prevent virus-induced cell death using MT4 cells and strain RF (Example III); type: cell-based; details: MT4 cells, 7 days, MTT, 10080 min
Procedure: (§1) Various oligomers were dissolved in RPMI and were then assayed for anti-HIV activity by making doubling dilutions of the solutions across a 96 well microtitre plate. To each well were then added 5×10^4 cells and 100 TCID50 of virus and the plates incubated at 37° C. for 7 days. MTT was added to each well and the plates incubated for a further 2 hours. The blue formazan crystals were dissolved using acidic isopropanol, and the absorbance measured at 540 nm.

HIV-I (GB8) [2] = assay: Pretreatment of JM cells and block of HIV-I (GB8) infection (Example IV); details: pretreated overnight at 20 μg/mL; for MEAN SYNCYTIA: 2 days; for P24 % / SYNCYTIA %: % of control, 2880 min
Procedure: JM cells were pretreated overnight at 37° C. with different compounds at 20 μg/mL or left untreated. The cells were washed 3 times in RPMI medium and then infected with HIV-I (GB8) for 2 hours at room temperature. The cells were again washed 3 times in RPMI medium and resuspended in fresh medium prior to being distributed into duplicate wells and incubated at 37° C. After 2 days syncytia were scored and the cell free supernatant fluid harvested and assayed for P24 viral core antigen using the Coulter™ HIV antigen assay.

HIV-I, GB8 = assay: Ability to prevent syncytia formation and expression of P24 viral core antigen using JM cells and GB8 virus strain (Example I); type: cell-based; details: for P24 % CONTROL: 4320 min; for SYNCYTIA: after 3 days
Procedure: The virus was first incubated with an oligomer for 15 minutes and then the cells were added. After 2 hours adsorption, the virus innoculum was removed and the cells were washed three times to remove traces of input virus. Antiviral activity was determined after 3 days incubation by plotting the mean number of syncytia found in quadruple cultures against log10 concentration of anionic polymer or of other test compounds. The potency of an oligomer was also measured by assaying viral core antigen (P24 test-Abbott) in the supernatant fluid. Heparin, dextran sulfate, rs CD4, ATZ and/or ddC data, when included in any of the following Tables, are provided as positive controls.

HIV-I (GB8) [3] = assay: Effect of treating HIV-I (GB8)-infected cells (JM) 48 hours post-infection (Example V, Table VIII); type: cell-based; details: for P24 / P24 % CONTROL: day 6 p.i.
MT4 cells = assay: Toxicity to MT4 cells (TD50, Table IV, MTT); type: cell-based; details: MT4 cells, 7 days, MTT
Procedure: as §1

[4] = 0.31 μM, addition 24 hours p.i.
[5] = 0.62 μM, addition 24 hours p.i.
[6] = 1.25 μM, addition 24 hours p.i.
[7] = 1.2 μM, addition 0 hours p.i., single wells

O=CC[C@@H](O)[C@H](O)[C@H](O)CO [2-deoxy-D-glucose]
expression of HIV glycoproteins and formation of syncytia (HIV): inhibit expression of HIV glycoproteins and block the formation of syncytia
viral protein glycosylation (influenza): inhibited viral protein glycosylation

poly{imino[2,2'-disulfo(1,1'-biphenyl)-4,4'-diyl]iminocarbonyl}, alpha-{[(4-methylphenyl)amino]carbonyl}-omega[(4-methylphenyl)amino]- [Example 1A]
P24 DAY 6 p.i. (HIV-I (GB8) [1]; [4]): 165000 pg/mL
SYNCYTIA/WELL DAY 3 p.i. (HIV-I (GB8) [1]; [4]): > 50 SYNCYTIA/WELL
P24 % CONTROL (HIV-I (GB8) [1]; [4]): 16.0%
P24 DAY 6 p.i. (HIV-I (GB8) [1]; [5]): 56000 pg/mL
SYNCYTIA/WELL DAY 3 p.i. (HIV-I (GB8) [1]; [5]): < 20 SYNCYTIA/WELL
P24 % CONTROL (HIV-I (GB8) [1]; [5]): 5.4%
P24 DAY 6 p.i. (HIV-I (GB8) [1]; 1.2 μM, addition 24 hours p.i.): 15000 pg/mL
SYNCYTIA/WELL DAY 3 p.i. (HIV-I (GB8) [1]; 1.2 μM, addition 24 hours p.i.): < 10 SYNCYTIA/WELL
P24 % CONTROL (HIV-I (GB8) [1]; 1.2 μM, addition 24 hours p.i.): 1.5%
P24 DAY 6 p.i. (HIV-I (GB8) [1]; 2.5 μM, addition 0 hours p.i.): 420 pg/mL
SYNCYTIA/WELL DAY 3 p.i. (HIV-I (GB8) [1]; 2.5 μM, addition 0 hours p.i.): 0 SYNCYTIA/WELL
P24 % CONTROL (HIV-I (GB8) [1]; 2.5 μM, addition 0 hours p.i.): 0.04%
P24 DAY 6 p.i. (HIV-I (GB8) [1]; 2.5 μM, addition 24 hours p.i.): 12100 pg/mL
SYNCYTIA/WELL DAY 3 p.i. (HIV-I (GB8) [1]; 2.5 μM, addition 24 hours p.i.): 0 SYNCYTIA/WELL
P24 % CONTROL (HIV-I (GB8) [1]; 2.5 μM, addition 24 hours p.i.): 1.2%
P24 DAY 6 p.i. (HIV-I (RF); [5]): 700000 pg/mL
P24 % CONTROL (HIV-I (RF); [5]): 74%
P24 DAY 6 p.i. (HIV-I (RF); [6]): 1.5e+06 pg/mL
SYNCYTIA/WELL DAY 2 (HIV-I (RF); [6]): 0
P24 % CONTROL (HIV-I (RF); [6]): 100%
SYNCYTIA/WELL DAY 2 (HIV-I (RF); 2.5 μM, addition 24 hours p.i.): 0
SYNCYTIA/WELL DAY 3 (HIV-I (RF); 2.5 μM, addition 24 hours p.i.): 0
P24 % CONTROL (HIV-I (RF); 2.5 μM, addition 24 hours p.i.): 10.2%
P24 DAY 6 p.i. (HIV-I (RF); 5 μM, addition 24 hours p.i.): 9300 pg/mL
SYNCYTIA/WELL DAY 2 (HIV-I (RF); 5 μM, addition 24 hours p.i.): 0
SYNCYTIA/WELL DAY 3 (HIV-I (RF); 5 μM, addition 24 hours p.i.): 0
P24 % CONTROL (HIV-I (RF); 5 μM, addition 24 hours p.i.): 1.0%
P24 DAY 6 p.i. (HIV-I (RF); 10 μM, addition 0 hours p.i.): 16000 pg/mL
SYNCYTIA/WELL DAY 2 (HIV-I (RF); 10 μM, addition 0 hours p.i.): 0
SYNCYTIA/WELL DAY 3 (HIV-I (RF); 10 μM, addition 0 hours p.i.): 0
P24 % CONTROL (HIV-I (RF); 10 μM, addition 0 hours p.i.): 1.7%
P24 DAY 6 p.i. (HIV-I (RF); 10 μM, addition 24 hours p.i.): 9200 pg/mL
SYNCYTIA/WELL DAY 2 (HIV-I (RF); 10 μM, addition 24 hours p.i.): 0
SYNCYTIA/WELL DAY 3 (HIV-I (RF); 10 μM, addition 24 hours p.i.): 0
P24 % CONTROL (HIV-I (RF); 10 μM, addition 24 hours p.i.): 1.0%
SYNCYTIA (2 DAYS) MEAN (GB8 virus in JM cells; 0.01 μg/mL): 60
SYNCYTIA % (GB8 virus in JM cells; 0.01 μg/mL): 143%
P24 (GB8 virus in JM cells; 0.03 μg/mL): 4.3 × 10^5 units/mL
SYNCYTIA (2 DAYS) MEAN (GB8 virus in JM cells; 0.03 μg/mL): 52
SYNCYTIA % (GB8 virus in JM cells; 0.03 μg/mL): 123%
P24 % (GB8 virus in JM cells; 0.03 μg/mL): 100%
P24 (GB8 virus in JM cells; 0.1 μg/mL): 4.0 × 10^5 units/mL
SYNCYTIA (2 DAYS) MEAN (GB8 virus in JM cells; 0.1 μg/mL): 25
SYNCYTIA % (GB8 virus in JM cells; 0.1 μg/mL): 58%
P24 % (GB8 virus in JM cells; 0.1 μg/mL): 100%
P24 (GB8 virus in JM cells; 0.3 μg/mL): 4.0 × 10^4 units/mL
SYNCYTIA (2 DAYS) MEAN (GB8 virus in JM cells; 0.3 μg/mL): 14
SYNCYTIA % (GB8 virus in JM cells; 0.3 μg/mL): 33%
P24 % (GB8 virus in JM cells; 0.3 μg/mL): 11%
P24 (GB8 virus in JM cells; 1 μg/mL): 9.1 × 10^3 units/mL
SYNCYTIA (2 DAYS) MEAN (GB8 virus in JM cells; 1 μg/mL): 0
SYNCYTIA % (GB8 virus in JM cells; 1 μg/mL): 0%
P24 % (GB8 virus in JM cells; 1 μg/mL): 3%
SYNCYTIA (2 DAYS) MEAN (GB8 virus in JM cells; 3 μg/mL): 0
SYNCYTIA % (GB8 virus in JM cells; 3 μg/mL): 0%
SYNCYTIA (2 DAYS) MEAN (GB8 virus in JM cells; 10 μg/mL): 0
SYNCYTIA % (GB8 virus in JM cells; 10 μg/mL): 0%
ED50 (HIV strain RF): 1.6 µg/mL
P24 (HIV-I (GB8) [2]): 2623 pg/mL
MEAN SYNCYTIA (HIV-I (GB8) [2]): 14
P24 % (HIV-I (GB8) [2]): 9%
SYNCYTIA % (HIV-I (GB8) [2]): 12%
P24 (HIV-I, GB8; 0.6 μg/mL): 37355 pg/mL
P24 % CONTROL (HIV-I, GB8; 0.6 μg/mL): 0.13%
P24 (HIV-I, GB8; 1.25 μg/mL): 541 pg/mL
P24 % CONTROL (HIV-I, GB8; 1.25 μg/mL): < 0.1%
SYNCYTIA (HIV-I, GB8; 1.25 μg/mL): 0
P24 (HIV-I, GB8; 2.5 μg/mL): 96 pg/mL
P24 % CONTROL (HIV-I, GB8; 2.5 μg/mL): < 0.1%
SYNCYTIA (HIV-I, GB8; 2.5 μg/mL): 0
SYNCYTIA (HIV-I, GB8; 5.0 μg/mL): 0
P24 (HIV-I (GB8) [3]; 1.2 μM, addition 0 hours p.i.): 450 pg/mL
P24 % CONTROL (HIV-I (GB8) [3]; 1.2 μM, addition 0 hours p.i.): 0.41%
SYNCYTIA/WELL DAY 3 p.i. (HIV-I (GB8) [3]; [7]): 0 SYNCYTIA/WELL
SYNCYTIA/WELL DAY 6 p.i. (HIV-I (GB8) [3]; [7]): 0 SYNCYTIA/WELL
P24 (HIV-I (GB8) [3]; 1.2 μM, addition 48 hours p.i.): 21000 pg/mL
P24 % CONTROL (HIV-I (GB8) [3]; 1.2 μM, addition 48 hours p.i.): 19.0%
SYNCYTIA/WELL DAY 3 p.i. (HIV-I (GB8) [3]; 1.2 μM, addition 48 hours p.i., single wells): 19 SYNCYTIA/WELL and 10 SYNCYTIA/WELL and 12 SYNCYTIA/WELL
effect on cells having preestablished infections (HIV-I (GB8) [3]; summary of studies): cleared cultures of syncytia, stabilized the infection and reduced virus antigen levels
TD50 (MT4 cells): > 100 µg/mL

poly[imino(2,5-disulfo-1,4-phenylene)iminocarbonyl], alpha-{[(4-methylphenyl)amino]carbonyl}-omega-[(4-methylphenyl)amino]- [Example 3A]
SYNCYTIA (2 DAYS) MEAN (GB8 virus in JM cells; 0.6 μg/mL): 51
SYNCYTIA % (GB8 virus in JM cells; 0.6 μg/mL): 120%
P24 (GB8 virus in JM cells; 1.25 μg/mL): 4.3 × 10^5 units/mL
SYNCYTIA (2 DAYS) MEAN (GB8 virus in JM cells; 1.25 μg/mL): 20
SYNCYTIA % (GB8 virus in JM cells; 1.25 μg/mL): 48%
P24 % (GB8 virus in JM cells; 1.25 μg/mL): 100%
P24 (GB8 virus in JM cells; 2.5 μg/mL): 2.5 × 10^5 units/mL
SYNCYTIA (2 DAYS) MEAN (GB8 virus in JM cells; 2.5 μg/mL): 38
SYNCYTIA % (GB8 virus in JM cells; 2.5 μg/mL): 90%
P24 % (GB8 virus in JM cells; 2.5 μg/mL): 69%
P24 (GB8 virus in JM cells; 5 μg/mL): 3.6 × 10^5 units/mL
SYNCYTIA (2 DAYS) MEAN (GB8 virus in JM cells; 5 μg/mL): 15
SYNCYTIA % (GB8 virus in JM cells; 5 μg/mL): 36%
P24 % (GB8 virus in JM cells; 5 μg/mL): 100%
P24 (GB8 virus in JM cells; 10 μg/mL): 4.1 × 10^4 units/mL
SYNCYTIA (2 DAYS) MEAN (GB8 virus in JM cells; 10 μg/mL): 3
SYNCYTIA % (GB8 virus in JM cells; 10 μg/mL): 7%
P24 % (GB8 virus in JM cells; 10 μg/mL): 11%
SYNCYTIA (2 DAYS) MEAN (GB8 virus in JM cells; 20 μg/mL): 5
SYNCYTIA % (GB8 virus in JM cells; 20 μg/mL): 12%
ED50 (HIV strain RF): > 10 µg/mL
P24 (HIV-I (GB8) [2]): 26880 pg/mL
MEAN SYNCYTIA (HIV-I (GB8) [2]): 153
P24 % (HIV-I (GB8) [2]): 95%
SYNCYTIA % (HIV-I (GB8) [2]): 129%
TD50 (MT4 cells): > 100 µg/mL
